# Laboratory results published in publication PMC9289130, “Pharmacokinetic Study of Four Major Bioactive Components of Liandan Xiaoyan Formula in Ulcerative Colitis and Control Rats Using UPLC-MS/MS” (Frontiers in Pharmacology, 2022).
# Where two headings read alike, the source gives them in different places.
# Experiments:
# [1] = Pharmacokinetic study in control and DSS-induced UC rats after oral administration of LXF (serum, UPLC-MS/MS); assay type: in vivo, Sprague-Dawley (SD) rats; settings: for AUC(0-inf) / AUC(0-t) / Cmax / Tmax / half-life / MRT inf: male, Sprague-Dawley, rat, serum, po, 3.3 g/kg, oral LXF 3.30 g/kg, rat serum, n = 8, mean ± SD; for MRT inf: read-out: MRT0→∞
# Procedure: Sixteen male Sprague-Dawley (SD) rats (220 ± 10 g) were provided from the Liaoning Changsheng Biotechnology Co., Ltd (Benxi, China; with license No. of SCXK, 2020-0001). The rats were kept in an environment (22 ± 2°C, relative humidity 50 ± 5%) under a 12-h light-dark cycle with a free diet and water for 3 days. All experiments on animals were conducted strictly under the related ethics regulations of the Committee on Use and Care of Animals of Guangzhou University of Chinese Medicine (Guangzhou, China) (No. 712052).
# All rats were assigned equally and randomly to the control and model groups. The rats of the model group were free to access 4% DSS for 7 days to induce UC, and rats of the control group were given pure water ([Chen et al., 2020]). Before the pharmacokinetics study, the DSS-induced UC rats (model) were established successfully (Supplementary Material Part B).
# After fasting for 12 h, the rats were orally administered LXF at a 3.30 g/kg dose according to Prescription preparation of Chinese medicine, volume 10 ([Lu et al., 2021]). Serum samples (approximately 0.5 ml) were collected from the fosse orbital vein using 1.5 ml polythene tubes before the administration and at 0.083, 0.25, 0.5, 1, 1.5, 2.5, 4, 6, 8, 12, 24, 36, and 48 h after dosing and centrifuged immediately at 3,500 rpm for 15 min. Serum was transferred into clean tubes and stored at −80°C.
# 100 μl of IS solution (960 ng/ml) was added to a 100 μl serum sample and vortex-mixed for 0.5 min, and then 800 μl of methanol was added and vortex-mixed for 3 min. After centrifugation at 12,000 rpm for 15 min (4°C), the supernatant of the mixture was transferred to another vial and evaporated to dryness with nitrogen purging. The residue was resolved with 100 μ of methanol, vortex-mixed for 1 min, and centrifuged at 12,000 rpm for 10 min (4°C). A 2 μl aliquot of the supernatant was injected into the UPLC-MS/MS system for analysis.
# Chromatographic analysis was performed using UPLC-MS/MS, utilizing a Finnigan Surveyor auto-sampler and a Finnigan Surveyor LC pump combined with a triple quadrupole TSQ Quantum mass spectrometer electrospray ionization (ESI) interface (Thermo Fisher, Palo Alto, CA). The chromatographic separation was performed on the Waters Acquity UPLC BEH C18 column (2.1 mm × 100 mm; 1.7 µm). The mobile phase consisted of acetonitrile (A) and 0.1% formic acid (B) with a gradient elution program (0-5 min, 20% A-35% A; 5-6 min, 35% A-100% A; 6–8min, 100% A; 8–8.5 min, 100% A-20% A; 8.5–10.5 min, 20% A) at a flow rate of 0.4 ml/min. The column temperature was maintained at 40°C throughout the analysis. The injection volume was 2 μl.
# Quantification was performed using multiple reaction monitoring (MRM) in the positive ionization mode, and the optimized MRM parameters of the four analytes and IS are listed in Table 1. The MRM transition, retention time (RT), and collision energy (CE) values were based on Thermo Foundation 2.0. Curtain gas pressure at 35 psi, ion source gas 1 and gas 2 at 55 psi, ion spray voltage at 5500 V, and temperature at 500°C.
# Non-compartment model pharmacokinetic parameters, including the time to reach the maximum serum concentration (Tmax), the maximum serum concentration (Cmax), the elimination half-time (T1/2), the area under the serum concentration-time curve (AUC), and mean residence time (MRT), were calculated by DAS (version 3.2.8, Chinese Pharmacological Association, Anhui, China). The difference between the control and model groups was statistically analyzed using SPSS 26.0 (IBM Company, Chicago). All data in this study were subjected to a one-way analysis of variance (ANOVA) and then expressed by mean ± standard deviation (SD). LSD t-test was applied when the homogeneity of variance assumptions was satisfied; otherwise, Dunnett’s t-test was used. A p < 0.05 was considered statistically significant.
# [2] = Stability test of QC samples in rat serum; assay type: in vitro ADME; settings: n = 6
# Procedure: Quality control (QC) samples at low, middle and high concentrations (61.50, 384.38, and 4,000.00 ng/ml for andrographolide; 24.00, 150.00, and 1,500.00 ng/ml for dehydroandrographolide; 6.91, 43.20, and 450.00 ng/ml for 1-methoxicabony-β-carboline; 6.30, 39.38, and 400.00 ng/ml for 4-methoxy-5-hydroxy-canthin-6-one) were also prepared by the same procedures.
# Recovery was determined at three QC levels and calculated by comparing the compound standard peak areas obtained from extracted samples with post-extracted samples spiked with the compound. Matrix effects were calculated by matching spiking post-extracted blank serum samples with corresponding standard clean solutions at three concentrations of QC samples.
# [3] = 4°C for 24 h, high QC (nominal 4,000.00 / 1,500.00 / 450.00 / 400.00 ng/ml for compounds 1-4)
# [4] = 4°C for 24 h, low QC (nominal 61.50 / 24.00 / 6.91 / 6.30 ng/ml for compounds 1-4)
# [5] = 4°C for 24 h, middle QC (nominal 384.38 / 150.00 / 43.20 / 39.38 ng/ml for compounds 1-4)
# [6] = 25°C for 12 h, high QC (nominal 4,000.00 / 1,500.00 / 450.00 / 400.00 ng/ml for compounds 1-4)
# [7] = 25°C for 12 h, low QC (nominal 61.50 / 24.00 / 6.91 / 6.30 ng/ml for compounds 1-4)
# [8] = 25°C for 12 h, middle QC (nominal 384.38 / 150.00 / 43.20 / 39.38 ng/ml for compounds 1-4)
# [9] = three freeze-thaw, high QC (nominal 4,000.00 / 1,500.00 / 450.00 / 400.00 ng/ml for compounds 1-4)
# [10] = three freeze-thaw, low QC (nominal 61.50 / 24.00 / 6.91 / 6.30 ng/ml for compounds 1-4)
# [11] = three freeze-thaw, middle QC (nominal 384.38 / 150.00 / 43.20 / 39.38 ng/ml for compounds 1-4)
# [12] = −80°C for 30 days, high QC (nominal 4,000.00 / 1,500.00 / 450.00 / 400.00 ng/ml for compounds 1-4)
# [13] = −80°C for 30 days, low QC (nominal 61.50 / 24.00 / 6.91 / 6.30 ng/ml for compounds 1-4)
# [14] = −80°C for 30 days, middle QC (nominal 384.38 / 150.00 / 43.20 / 39.38 ng/ml for compounds 1-4)
AUC(0-inf) ([1]; UC group (4% DSS for 7 days)) [ng·h/mL],AUC(0-t) ([1]; UC group (4% DSS for 7 days)) [ng·h/mL],Cmax ([1]; UC group (4% DSS for 7 days)) [ng/mL],Tmax ([1]; UC group (4% DSS for 7 days)) [h],half-life ([1]; UC group (4% DSS for 7 days)) [h],MRT inf ([1]; UC group (4% DSS for 7 days)) [h],AUC(0-inf) ([1]; control group) [ng·h/mL],AUC(0-t) ([1]; control group) [ng·h/mL],Cmax ([1]; control group) [ng/mL],Tmax ([1]; control group) [h],half-life ([1]; control group) [h],MRT inf ([1]; control group) [h],"Stability, mean concentration found [2, 3]","Stability, mean concentration found [2, 4] [ng/mL]","Stability, mean concentration found [2, 5] [ng/mL]","Stability, mean concentration found [2, 6]","Stability, mean concentration found [2, 7] [ng/mL]","Stability, mean concentration found [2, 8] [ng/mL]","Stability, mean concentration found [2, 9]","Stability, mean concentration found [2, 10] [ng/mL]",Compound,also measured
4790,4690,1150,0.38 ± 0.13,2.86 ± 2.01,5.08 ± 1.53,2360,2330,892 ± 148,0.28 ± 0.09,2.28 ± 1.69,5.04 ± 1.96,"1,421.52 ± 61.75 ng/mL",25.71 ± 1.69,156.59 ± 14.58,"1,439.13 ± 52.46 ng/ml",23.51 ± 0.69,153.93 ± 10.00,"1,428.09 ± 67.73 ng/mL",21.20 ± 2.30,C=C1CC[C@@H]2[C@](C)(CO)[C@H](O)CC[C@@]2(C)[C@H]1C/C=C1\C=COC1=O [dehydroandrographolide],"Shape of the serum concentration-time curve ([1]; UC group, oral LXF): double peaks; Shape of the serum concentration-time curve ([1]; control group, oral LXF): double peaks; Stability, mean concentration found [2, 11]: 143.60 ± 9.61 ng/mL; Stability, mean concentration found [2, 12]: 1,419.63 ± 51.60 ng/ml; Stability, mean concentration found [2, 13]: 22.46 ± 2.57 ng/mL; Stability, mean concentration found [2, 14]: 151.06 ± 3.31 ng/mL"
444 ± 154,424 ± 143,160 ± 18.9,1.13 ± 0.23,1.2 ± 0.41,2.23 ± 0.63,219 ± 79.2,215 ± 78.4,129 ± 33.9,0.69 ± 0.37,1.02 ± 0.43,1.52 ± 0.33,442.09 ± 15.98 ng/mL,7.71 ± 0.12,44.64 ± 3.27,439.66 ± 16.78 ng/mL,7.09 ± 0.16,42.21 ± 3.37,440.84 ± 17.31 ng/mL,6.63 ± 0.51,COC(=O)c1nccc2c1[nH]c1ccccc12 [1-methoxicabony-β-carboline],"Tmax and MRT0–∞ in the UC group compared with the control group ([1]; oral LXF, p < 0.05): longer; Stability, mean concentration found [2, 11]: 42.04 ± 2.18 ng/mL; Stability, mean concentration found [2, 12]: 436.91 ± 13.57 ng/mL; Stability, mean concentration found [2, 13]: 7.43 ± 0.66 ng/mL; Stability, mean concentration found [2, 14]: 42.66 ± 1.92 ng/mL"
817 ± 177,759 ± 142,419 ± 104,0.43 ± 0.47,3.3 ± 1.52,3.66 ± 1.55,595 ± 117,554 ± 74.2,395 ± 97.7,0.08,3.15 ± 0.96,3.59 ± 1.43,391.53 ± 10.08 ng/mL,6.38 ± 0.41,39.35 ± 4.12,387.02 ± 9.84 ng/mL,5.50 ± 0.37,40.41 ± 3.15,386.59 ± 20.07 ng/mL,5.65 ± 0.12,COc1c(O)c(=O)n2c3ccccc3c3ccnc1c32 [4-methoxy-5-hydroxy-canthin-6-one],"Shape of the serum concentration-time curve ([1]; UC group, oral LXF): double peaks; Shape of the serum concentration-time curve ([1]; control group, oral LXF): not showed; Stability, mean concentration found [2, 11]: 41.43 ± 0.76 ng/mL; Stability, mean concentration found [2, 12]: 381.78 ± 17.23 ng/mL; Stability, mean concentration found [2, 13]: 6.39 ± 0.23 ng/mL; Stability, mean concentration found [2, 14]: 42.93 ± 1.44 ng/mL"
18400,15900,4090,0.69 ± 0.26,7.4 ± 5.02,7.4 ± 5.02,7120,6430,2310,0.53 ± 0.21,8.77 ± 2.96,8.42 ± 2.75,"3,915.74 ± 98.45 ng/mL",58.54 ± 4.47,383.22 ± 9.64,"3,896.61 ± 129.89 ng/ml",56.68 ± 4.20,399.59 ± 9.79,"3,923.07 ± 110.39 ng/mL",60.13 ± 3.34,C=C1CC[C@@H]2[C@](C)(CO)[C@H](O)CC[C@@]2(C)[C@@H]1C/C=C1/C(=O)OC[C@H]1O [andrographolide],"Stability, mean concentration found [2, 11]: 396.68 ± 13.05 ng/mL; Stability, mean concentration found [2, 12]: 3,904.68 ± 126.18 ng/ml; Stability, mean concentration found [2, 13]: 58.97 ± 2.93 ng/mL; Stability, mean concentration found [2, 14]: 370.23 ± 17.30 ng/mL"
